Results from patent US20140038920A1, “TFEB PHOSPHORYLATION INHIBITORS AND USES THEREOF” (FONDAZIONE TELETHON, priority 2011, published 2014).

Key:
TFEB [1] = assay: TFEB nuclear localization in starved HeLa cells overexpressing TFEB, re-stimulated with media plus supplements or inhibitors (nuclear fractionation, Flag blot, immunofluorescence); assay type: cell-based; settings: starved cells stimulated with normal medium supplemented with kinase inhibitor (FIG. 2g, 11b)
Description: (A) Scatter Plot graphs displaying the logarithmic value of the fold change differences in the relative expression levels of 51 autophagy-related genes in HeLa cells cultured in different conditions. X-axis=control group. Y-axis=treated group. Circles represent genes with increased (red) or decreased (green) fold change. Comparisons were as indicated. (B) Chromatin immunoprecipitation (ChIP) analysis. […] Values were normalized to the input and plotted as relative enrichment over a mock control. Experiments were performed in triplicate. (C) qPCR analysis of TFEB-target gene expression in normal, starved, and in TFEB-siRNA starved cells. GAPDH and HPRT represents housekeeping genes, while ATG10, ATG9A and ATG4D represent control genes (non-TFEB target genes). (D-F) HeLa cells stably overexpressing TFEB were left untreated or nutrient starved for 4 h. (D) Five fields containing 50-100 cells/each were analyzed for TFEB nuclear localization. […] (E) Cells were subjected to nuclear/cytosolic fractionation and blotted with Flag antibody. H3 and tubulin were used as nuclear and cytosolic markers, respectively. (F) Nuclear fractions were blotted with Flag and H3 (loading control) antibodies. (G) Western blot analysis of Flag, tubulin and H3 in nuclear extracts prepared from normal, starved and starved/stimulated with normal media cells for 1 h (normal) or pretreated with AP-2 (AKT inhibitor), Rapamycin (mTOR inhibitor) and U0126 (MEK inhibitor) 1 h prior to media stimulation. Total extracts were used to verify the efficiency of the inhibitors. […] Starvation was performed where indicated. (All error bars represent standard deviations. T-test (unpaired) p value (*)<0.05, (**)<0.01)
Cytosolic and nuclear fractions were subjected to Flag immunoblotting. […] Error bars represent standard deviations.
Cells were seeded at 50% of confluence in 6 well dishes and serum starved overnight (ON). Normal medium was added the following day either in presence of DMSO or kinase inhibitors. Subcellular fractionation was carried out as previously reported.
To identify the mechanism of starvation-induced activation of TFEB, the applicants analyzed its subcellular localization and post-translational modifications in starved cells.

TFEB [2] = assay: TFEB molecular weight shift and localization in TFEB-3xFLAG HeLa cells stimulated with amino-acid rich medium plus inhibitor (FIG. 19B); assay type: cell-based; settings: Torin 1 250 nM, Rapamycin 2.5 μM
Experimental: FIG. 19 mTORC1 regulates TFEB. (A) Lysosomal stress inhibits mTOR signaling. Immunoblotting of protein extracts isolated from HeLa cells treated overnight, as indicated. Membranes were probed with antibodies for p-T202/Y204-ERK1/2, ERK1/2, p-T389-S6K, and S6K to measure ERK and mTORC1 activities. […] FLAG immunoblotting of cytosolic and nuclear fractions isolated from TFEB-3×FLAG HeLa cells cultured in amino acid-free media and subsequently stimulated as indicated for at least 3 h. Correct subcellular fractionation was verified with H3 and tubulin antibodies. (C, D) Effects and dose—response curves of ERK and mTOR inhibitors on TFEB nuclear translocation. […] After 3 h at 37° C. in RPMI medium containing one of each of the compounds, the cells were washed, fixed, and stained with DAPI and photographed by using confocal automated microscopy (Opera high content system, Perkin Elmer). (C) Representative images of test concentrations for each compound. Scale bars represent 30 μm. […] The EC50 for each compound was calculated using Prism software (see Materials and Methods for details). (E) Amino acids induce TFEB molecular weight shift. Immunoblotting of protein extracts isolated from HEK-293T cells transfected either TFEB-3×FLAG or with an empty vector were nutrient starved and stimulated for 50 minutes with amino acids (a.a.). Antibody used were p-T389-S6K, S6K and FLAG. (F) Rag knockdown induces TFEB nuclear translocation. HeLa cells stably expressing Flag-3×TFEB were infected with lentiviruses encoding a Short hairpin (Sh-) RNA targeting luciferase (control) or RagC and RagD mRNAs. […] TFEB localization was detected with a FLAG antibody, whereas tubulin and H3 were used as controls for the cytosolic and nuclear fraction, respectively; levels of S6K phosphorylation were used to test RagC and RagD knockdown efficiency.
The mouse anti-TFEB monoclonal antibody was purchased from My Biosource catalogue No. MBS 120432. To generate anti-pS142 specific antibodies, rabbits were immunized with the following peptide coupled to KLH: AGNSAPN{pSer}[…]. Following the fourth immunization, rabbits were sacrificed and the serum was collected. Non-phosphospecific antibodies were depleted from the serum by circulation through a column containing the nonphosphorylated antigene. The phosphospecific antibodies were subsequently purified using a column containing the phosphorylated peptide. Cells were lysed with M-PER buffer (Thermo) containing protease and phosphatase inhibitors (Sigma); nuclear/cytosolic fractions were isolated as above described. Proteins were separated by SDS-PAGE (Invitrogen; reduced NuPAGE 4-12% Bis-tris Gel, MES SDS buffer). If needed, the gel was stained using 20 ml Imperial Protein Stain (Thermo Fisher) at room temperature for 1 h and de-stained with water. […]

[3] = system: glycosaminoglycan (GAG) accumulation in MSD NSCs; assay: Alcian blue staining of GAGs in differentiated NSCs from MSD mice (FIG. 22); assay type: cell-based, mouse; settings: glia-differentiated MSD NSCs, 10 nM, 24 hours, versus DMSO
Experimental: After 24 hours, the GAG content was determined by alcian blue (AB) staining. Both torins were able to reduce GAG staining in MSD treated cells as compared to DMSO treated cells.
Neuronal progenitor cells were isolated from cortices of WT and MSD pups (P0) by tissue homogenization using the neural tissue dissociation kit and separation using magnetic sorting of cells expressing the stem cell marker prominin-1 (Miltenyi Biotec Srl). Neuronal progenitor cells were maintained in ESGRO complete medium (Hyclone) in the presence of EGF and FGF2 growth factors (Prepotech). Where indicated, neural stem cells (NSCs) were differentiated by removing growth factors and incubate in ESGRO medium containing 2% of serum for at least 48 h.
Neuronal progenitor cells were isolated from cortices of WT and MSD pups (P0) by using standard protocols. Neuronal stem cells (NSCs) were fixed in Methacarn (60% Methanol; 10% Acetic Acid; 30% Chloroform) for 15 min at RT. After washing the cells were stained for 3 hours in 1% alcian blue pH 2.5, rinsed in 0.3% acetic acid and water and mounted in 100% for visualization.

| SMILES | TFEB nuclear localization (TFEB [1]) | TFEB subcellular localization after nutrient stimulation (TFEB [2]) | TFEB molecular weight shift induced by nutrients (TFEB [2]; U0126 50 μM) | alcian blue-stained GAGs [3] |
| --- | --- | --- | --- | --- |
| CO[C@H]1C[C@@H]2CC[C@@H](C)[C@@](O)(O2)C(=O)C(=O)N2CCCC[C@H]2C(=O)O[C@H]([C@H](C)C[C@@H]2CC[C@@H](O)[C@H](OC)C2)CC(=O)[C@H](C)/C=C(\C)[C@@H](O)[C@@H](OC)C(=O)[C@H](C)C[C@H](C)/C=C/C=C/C=C/1C [RAPAMYCIN] | no effect | did not affect TFEB subcellular localization | partial molecular weight shift |  |
| CCC(=O)N1CCN(c2ccc(-n3c(=O)ccc4cnc5ccc(-c6cnc7ccccc7c6)cc5c43)cc2C(F)(F)F)CC1 [TORIN 1] |  | massive TFEB nuclear accumulation |  | striking reduction |
